How the values were obtained:
[1] = molecular target: Polymerase acidic protein (Influenza A virus (A/Puerto Rico/8/1934(H1N1)), UniProt P03433); assay: Inhibition of 8-histidine tagged influenza virus H1N1 N-terminal PA endonuclease expressed in Escherichia coli BL21 cells using single-stranded 5'-FAM fluorophore/3'-TAMRA quencher)-labeled 17-mer ssDNA-oligomer substrate measured over 45 mins by FRET analysis
MDCK = assay: Cytotoxicity against MDCK cells after 48 hrs by cell-titre glo luminescence assay; assay type: cell-based, Canis lupus familiaris; settings: dog
Influenza A virus = assay: Antiviral activity against influenza A virus H1N1 ATCC VR-1737 infected in MDCK cells after 48 hrs by hemagglutination assay; assay type: functional, organism-based; settings: H1N1 ATCC VR-1737, MDCK

Row | SMILES | IC50 [1] [µM] | also measured
1 | Cc1c(O)c(=O)ccn1-c1ccccc1 | 18 | 
2 | O=c1cc(CNCc2ccccc2)occ1O | 2.7 | 
3 | CN(Cc1cc(=O)c(O)cn1-c1ccc(-c2nnn[nH]2)cc1)c1ccc(Cl)cc1 |  | CC50 (MDCK): 280 µM
4 | CS(=O)(=O)NCc1cc(=O)c(O)co1 | 4.8 | 
5 | CN(Cc1cc(=O)c(O)co1)c1ccc(F)cc1 | 1.8 | 
6 | Cc1occ(O)c(=O)c1C(=O)NCCc1ccccc1 | 11.3 | 
7 | Cc1c(O)c(=O)ccn1C1CCCCC1 | 14 | 
8 | CN(Cc1cc(=O)c(O)co1)c1cccc(F)c1 | 3.2 | 
9 | Cc1cc(=O)c(O)cn1-c1ccc(-c2ccccc2)cc1 | 1.3 | 
10 | COc1cccc(CNC(=O)c2c(C)occ(O)c2=O)c1 | 22.1 | 
11 | CCOC(=O)c1c(C)n(-c2ccc(Oc3ccccc3)cc2)cc(O)c1=O | 5.2 | 
12 | Cc1cc(=O)c(O)cn1C1CCOCC1 | 0.73 | 
13 | CN(Cc1cc(=O)c(O)co1)c1ccncc1 | > 100 | pIC50 [1]: < 4
14 | CCOC(=O)c1c(C)n(-c2ccccc2)cc(O)c1=O | 5.3 | 
15 | O=C(O)/C(O)=C/C(=O)C1(Cc2ccc(Cl)cc2)CCN(Cc2ccccc2)CC1 |  | CC50 (MDCK): 284 µM; EC50 (Influenza A virus): 9 µM
